Measurements from patent US10793535B2, “Heterocyclic glutaminase inhibitors” (Calithera Biosciences, Inc., priority 2012, dated 2020).

What follows are compounds tested on P493-6 (myc "on") cells (assay: Cell proliferation assay). Conditions: P493-6, 72 h, read-out: Cell prolif P493 72 h IC50.
Type: cell-based
Procedure: P493-6 (myc “on”) cells were maintained in growth media (RPMI-1640, 10% FBS, 2 mM glutamine, 100 units/ml Penicillin and 100 μg/ml streptomycin) at 37° C. with 5% CO2. For compound assay, P493-6 cells were plated in 96-well V-bottom plates on the day of compound addition in 50 μl of growth media at a cell density of 200,000 cells/ml (10,000 cells/well). Compounds were serially diluted in 100% DMSO at 200-times the final concentration. Compounds were diluted 100-fold into growth media and then 50 μl of this mixture was added to cell plates making the final concentration of DMSO 0.5%. Cells were incubated with compound for 72 hrs at 37° C. with 5% CO2 and analyzed for antiproliferative effects either by Cell Titer Glo (Promega) or FACS analysis using the Viacount (Millipore) kit on the Guava instrument.
Compound `O=C(Cc1ccccc1)Nc1nnc(CCSCCc2nnc(NC(=O)Cc3ccccc3)s2)s1` [Compound 1] has an IC50 of 470 nM.
For `CCCC(=O)OCN(C(=O)Cc1ccccc1)c1nnc(CCCCc2ccc(NC(=O)Cc3ccccc3)nn2)s1` [Compound 402], the IC50 was 54 nM.
Work on `CC(C)(C)OC(=O)NCc1cccc(CC(=O)Nc2nnc(CCCCc3ccc(NC(=O)Cc4cccc(OC(F)(F)F)c4)nn3)s2)c1` [Compound 586] yielded an IC50 of 31 nM.
In the case of `CCOC(=O)NCc1cccc(CC(=O)Nc2nnc(CCCCc3ccc(NC(=O)Cc4cccc(OC(F)(F)F)c4)nn3)s2)c1` [Compound 600], the IC50 is reported as 8 nM.
`O=C(Cc1ccccc1OC(F)(F)F)Nc1ccc(CCCCc2nnc(NC(=O)Cc3ccccc3)s2)nn1` [Compound 614] showed an IC50 of 82 nM.
In the case of `O=C(Cc1ccc(OC(F)(F)F)cc1)Nc1ccc(CCCCc2nnc(NC(=O)Cc3ccccc3)s2)nn1` [Compound 615], the IC50 is reported as 120 nM.
`CCCC(=O)OCN(C(=O)Cc1ccccc1)c1nnc(CCCCc2ccc(NC(=O)Cc3cccc(OC(F)(F)F)c3)nn2)s1` [Compound 629] gave an IC50 of 65 nM.
Compound `CC(C(=O)Nc1nnc(CCCCc2ccc(NC(=O)Cc3cccc(OC(F)(F)F)c3)nn2)s1)c1ccccc1` (stereo not shown) [Compound 636] has an IC50 of 59 nM.
`Nc1nnc(CCCCc2ccc(NC(=O)Cc3cccc(OC(F)(F)F)c3)nn2)s1` [Compound 657] was tested, and the IC50 was 1500 nM.
`COc1cccc(CC(=O)Nc2nnc(CCCCc3ccc(NC(=O)Cc4cccc(OC(F)(F)F)c4)nn3)s2)c1` [Compound 658] showed an IC50 of 40 nM.
`O=C(Cc1cccc(OC(F)(F)F)c1)Nc1ccc(CCCCc2nnc(NC(=O)Cc3cc(F)ccc3F)s2)nn1` [Compound 659] showed an IC50 of 58 nM.
`O=C(Cc1cccc(OC(F)(F)F)c1)Nc1ccc(CCCCc2nnc(NC(=O)Cc3ccc(F)cc3)s2)nn1` [Compound 661] gave an IC50 of 120 nM.
For `O=C(Cc1cccc(OC(F)(F)F)c1)Nc1ccc(CCCCc2nnc(NC(=O)Cc3cc(F)cc(F)c3)s2)nn1` [Compound 662], the IC50 was 55 nM.
With `O=C(Cc1cccc(OC(F)(F)F)c1)Nc1ccc(CCCCc2nnc(NC(=O)Cc3cccc(F)c3F)s2)nn1` [Compound 663] the IC50 was 89 nM.
In the case of `O=C(Cc1cccc(OC(F)F)c1)Nc1ccc(CCCCc2nnc(NC(=O)Cc3ccccc3)s2)nn1` [Compound 666], the IC50 is reported as 58 nM.
`O=C(Cc1cccc(OC(F)(F)F)c1)Nc1ccc(CCCCc2nnc(NC(=O)Cc3cccc(OC(F)F)c3)s2)nn1` [Compound 668] gave an IC50 of 26 nM.
With `O=C(Cc1cccc(OC(F)(F)F)c1)Nc1ccc(CCCCc2nnc(NC(=O)Cc3cccc(OCC(F)(F)F)c3)s2)nn1` [Compound 669] the IC50 was 26 nM.
`O=C(Cc1cccc(OC(F)(F)F)c1)Nc1ccc(CCCCc2nnc(NC(=O)Cc3cccnc3)s2)nn1` [Compound 671] was tested, and the IC50 was 35 nM.
In the case of `O=C(Cc1cccc(OC(F)(F)F)c1)Nc1ccc(CCCCc2nnc(NC(=O)Cc3ccncc3)s2)nn1` [Compound 672], the IC50 is reported as 45 nM.
`O=C(Cc1cccc(OC(F)(F)F)c1)Nc1ccc(CCCCc2nnc(NC(=O)Cc3ccccc3F)s2)nn1` [Compound 673] gave an IC50 of 33 nM.
`CSc1cccc(CC(=O)Nc2nnc(CCCCc3ccc(NC(=O)Cc4cccc(OC(F)(F)F)c4)nn3)s2)c1` [Compound 674] showed an IC50 of 24 nM.
For `O=C(Cc1cccc(OC(F)(F)F)c1)Nc1ccc(CCCCc2nnc(NC(=O)Cc3cncnc3)s2)nn1` [Compound 675], the IC50 was 40 nM.
`O=C(Cc1cccc(OC(F)(F)F)c1)Nc1ccc(CCCCc2nnc(NC(=O)Cc3cnccn3)s2)nn1` [Compound 676] was tested, and the IC50 was 30 nM.
`O=C(Cc1cccc(OC(F)(F)F)c1)Nc1ccc(CCCCc2nnc(NC(=O)Cc3ccon3)s2)nn1` [Compound 677] showed an IC50 of 56 nM.
Compound `O=C(Cc1cccc(OC(F)(F)F)c1)Nc1ccc(CCCCc2nnc(NC(=O)Cc3cscn3)s2)nn1` [Compound 678] has an IC50 of 26 nM.
In the case of `O=C(Cc1cccc(OC(F)(F)F)c1)Nc1ccc(CCCCc2nnc(NC(=O)Cc3cccc(Cl)c3)s2)nn1` [Compound 680], the IC50 is reported as 33 nM.
Compound `CS(=O)(=O)c1cccc(CC(=O)Nc2nnc(CCCCc3ccc(NC(=O)Cc4cccc(OC(F)(F)F)c4)nn3)s2)c1` [Compound 681] has an IC50 of 19 nM.
Compound `C[S+]([O-])c1cccc(CC(=O)Nc2nnc(CCCCc3ccc(NC(=O)Cc4cccc(OC(F)(F)F)c4)nn3)s2)c1` (stereo not shown) [Compound 682] has an IC50 of 17 nM.
`O=C(Cc1cccc(OC(F)(F)F)c1)Nc1ccc(CCCCc2nnc(NC(=O)Cc3ccc(Cl)nc3)s2)nn1` [Compound 683] showed an IC50 of 24 nM.
`COCCC(C(=O)Nc1nnc(CCCCc2ccc(NC(=O)Cc3cccc(OC(F)(F)F)c3)nn2)s1)c1cccnc1` (stereo not shown) [Compound 684] showed an IC50 of 42 nM.
With `Cn1cc(CC(=O)Nc2nnc(CCCCc3ccc(NC(=O)Cc4cccc(OC(F)(F)F)c4)nn3)s2)cn1` [Compound 685] the IC50 was 22 nM.
For `Cc1c(CC(=O)Nc2nnc(CCCCc3ccc(NC(=O)Cc4cccc(OC(F)(F)F)c4)nn3)s2)cnn1C` [Compound 686], the IC50 was 10 nM.
`Cn1ccc(CC(=O)Nc2nnc(CCCCc3ccc(NC(=O)Cc4cccc(OC(F)(F)F)c4)nn3)s2)n1` [Compound 687] was tested, and the IC50 was 11 nM.
`Cc1nc(CC(=O)Nc2nnc(CCCCc3ccc(NC(=O)Cc4cccc(OC(F)(F)F)c4)nn3)s2)c(C)s1` [Compound 688] was tested, and the IC50 was 12 nM.
`O=C(Cc1cccc(OC(F)(F)F)c1)Nc1ccc(CCCCc2nnc(NC(=O)C(O)c3ccccc3)s2)nn1` (stereo not shown) [Compound 689] was tested, and the IC50 was 13 nM.
For `O=C(Cc1cccc(OC(F)(F)F)c1)Nc1ccc(CCCCc2nnc(NC(=O)C(OC(=O)C(O)c3ccccc3)c3ccccc3)s2)nn1` (stereo not shown) [Compound 690], the IC50 was 17 nM.
`N#Cc1cccc(CC(=O)Nc2nnc(CCCCc3ccc(NC(=O)Cc4cccc(OC(F)(F)F)c4)nn3)s2)c1` [Compound 692] gave an IC50 of 20 nM.
In the case of `O=C(Cc1cccc(OC(F)(F)F)c1)Nc1ccc(CCCCc2nnc(NC(=O)Cn3cccn3)s2)nn1` [Compound 693], the IC50 is reported as 70 nM.
For `Cc1nn(C(=O)OC(C)(C)C)c(C)c1CC(=O)Nc1nnc(CCCCc2ccc(NC(=O)Cc3cccc(OC(F)(F)F)c3)nn2)s1` [Compound 694], the IC50 was 29 nM.
Compound `Cc1n[nH]c(C)c1CC(=O)Nc1nnc(CCCCc2ccc(NC(=O)Cc3cccc(OC(F)(F)F)c3)nn2)s1` [Compound 695] has an IC50 of 30 nM.
`CC(C)(C)OC(=O)n1cnc(CC(=O)Nc2nnc(CCCCc3ccc(NC(=O)Cc4cccc(OC(F)(F)F)c4)nn3)s2)c1` [Compound 696] was tested, and the IC50 was 34 nM.
With `O=C(Cc1cccc(OC(F)(F)F)c1)Nc1ccc(CCCCc2nnc(NC(=O)Cc3c[nH]cn3)s2)nn1` [Compound 697] the IC50 was 50 nM.
With `Cc1ccn(CC(=O)Nc2nnc(CCCCc3ccc(NC(=O)Cc4cccc(OC(F)(F)F)c4)nn3)s2)n1` [Compound 698] the IC50 was 98 nM.
Compound `CC(C)c1cn(CC(=O)Nc2nnc(CCCCc3ccc(NC(=O)Cc4cccc(OC(F)(F)F)c4)nn3)s2)nn1` [Compound 699] has an IC50 of 120 nM.
In the case of `O=C(Cc1cccc(OC(F)(F)F)c1)Nc1ccc(CCCCc2nnc(NC(=O)Cn3cc(Cl)cn3)s2)nn1` [Compound 700], the IC50 is reported as 170 nM.
With `Cc1cc(C)n(CC(=O)Nc2nnc(CCCCc3ccc(NC(=O)Cc4cccc(OC(F)(F)F)c4)nn3)s2)n1` [Compound 701] the IC50 was 110 nM.
In the case of `O=C(Cc1cccc(OC(F)(F)F)c1)Nc1ccc(CCCCc2nnc(NC(=O)Cn3c(CN4CCOCC4)nc4ccccc43)s2)nn1` [Compound 702], the IC50 is reported as 310 nM.
`O=C(Cc1cccc(OC(F)(F)F)c1)Nc1ccc(CCCCc2nnc(NC(=O)CN3C[C@@H](O)CC3=O)s2)nn1` [Compound 704] gave an IC50 of 880 nM.
Compound `Nc1ccc(CCCCc2nnc(NC(=O)Cc3ccccn3)s2)nn1` [Compound 706] has an IC50 of 14000 nM.
For `O=C(Cc1cccc(OC(F)(F)F)c1)Nc1ccc(CCCCc2nnc(NC(=O)CN3CCCCC3=O)s2)nn1` [Compound 707], the IC50 was 85 nM.
Compound `O=C(Cc1cccc(OC(F)(F)F)c1)Nc1ccc(CCCCc2nnc(NC(=O)CN3C(=O)CCC3=O)s2)nn1` [Compound 708] has an IC50 of 2800 nM.
`O=C(Cc1cccc(OC(F)(F)F)c1)Nc1ccc(CCCCc2nnc(NC(=O)CN3CCCC3=O)s2)nn1` [Compound 709] was tested, and the IC50 was 140 nM.
With `O=C(Cc1ccccn1)Nc1nnc(CCCCc2ccc(NC(=O)C(O)c3ccccc3)nn2)s1` (stereo not shown) [Compound 715] the IC50 was 390 nM.
For `O=C(Cc1cccc(OC(F)(F)F)c1)Nc1ccc(CCCCc2nnc(NC(=O)Cc3cccc[n+]3[O-])s2)nn1` [Compound 716], the IC50 was 180 nM.
`COc1ccc(OC(F)(F)F)cc1CC(=O)Nc1ccc(CCCCc2nnc(NC(=O)Cc3ccccn3)s2)nn1` [Compound 717] showed an IC50 of 190 nM.
`O=C(Cc1cc(OC(F)(F)F)ccc1O)Nc1ccc(CCCCc2nnc(NC(=O)Cc3ccccn3)s2)nn1` [Compound 718] gave an IC50 of 15 nM.
Work on `O=C(Cc1ccc(F)c(OC(F)(F)F)c1)Nc1ccc(CCCCc2nnc(NC(=O)Cc3ccccn3)s2)nn1` [Compound 719] yielded an IC50 of 10 nM.
In the case of `O=C(Cc1cc(OC(F)(F)F)ccc1F)Nc1ccc(CCCCc2nnc(NC(=O)Cc3ccccn3)s2)nn1` [Compound 720], the IC50 is reported as 920 nM.
Compound `O=C(Cc1ccc(Cl)c(OC(F)(F)F)c1)Nc1ccc(CCCCc2nnc(NC(=O)Cc3ccccn3)s2)nn1` [Compound 721] has an IC50 of 22 nM.
Compound `COc1ccc(CC(=O)Nc2ccc(CCCCc3nnc(NC(=O)Cc4ccccn4)s3)nn2)cc1OC(F)(F)F` [Compound 722] has an IC50 of 16 nM.
In the case of `O=C(Cc1ccc(O)c(OC(F)(F)F)c1)Nc1ccc(CCCCc2nnc(NC(=O)Cc3ccccn3)s2)nn1` [Compound 723], the IC50 is reported as 20 nM.
`CC(C)(C)OC(=O)Nc1cccc(CC(=O)Nc2nnc(CCCCc3ccc(NC(=O)Cc4cccc(OC(F)(F)F)c4)nn3)s2)n1` [Compound 724] gave an IC50 of 34 nM.
For `Nc1cccc(CC(=O)Nc2nnc(CCCCc3ccc(NC(=O)Cc4cccc(OC(F)(F)F)c4)nn3)s2)n1` [Compound 725], the IC50 was 150 nM.
`[2H]C([2H])(CCc1nnc(N)s1)C([2H])([2H])c1ccc(NC(=O)Cc2cccc(OC(F)(F)F)c2)nn1` [Compound 726] gave an IC50 of 610 nM.
